Experimental data as given in patent publication US20250302728A1, “FRAGRANCE COMPOSITIONS AND PRODUCTS CONVEYING A POSITIVE MOOD” (SYMRISE AG, priority 2022, published 2025).

Tests used:
Format in all cases: in vivo, human
subject's mood [1] = assay: Implicit response test (IRT); set-up: scale not given here
Protocol: (§1) 1. Sensorial and Emotional Evaluation of Fragrance Raw Materials Each fragrance was evaluated by 30 subjects. At each appointment, the subject discovered fragrances in one sequence of four fragrances and two sequences of three fragrances separated by a 10-minute break.
(§2) During those appointments, the subjects smelt the fragrances in a random way.
(§3) For each fragrance, the subject discovered each fragrance on a card strip for 10 seconds. Between each product, a rest-period of 2 minutes was carried out during which the subject smelt their own body odour by smelling their wrist and the subject drank a little bit of water as well.
(§4) The evaluation is carried out in standardized lighting conditions and under a monitored temperature (temperature 21±1.5° C.).
Implicit response tests (IRTs) are a family of tests and assess the subjects' immediate, “gut instinct” responses the fragrance raw materials.
The alleged underlying processes are based on how neurosciences describe the way our brain processes information. Indeed, our brain processes information through two systems: System 2, which is slow and processes conscious information, and System 1, which is fast and processes non-conscious information.
The IRT tests are performed at a computer, where the following words appear on the computer screen: • Energizing • Relaxing • Attractive • Sensual • Joyful • Protective • Confident • Fresh • Well-being
The subject has to click on the screen with the computer mouse to indicate their accordance or not of the word with the tested fragrance. In addition, the times to click the button are recorded.

subject's mood [2] = assay: Actimood scoring (correlation of EmoChar and IRT values); conditions: scale 0 (low impact) to 3 (high impact)
Protocol: as §1, §3
Emochar™ is a system of emotional characterization, scoring 7 main emotional dimensions from 0 to 10: • Stimulation: focus, attention, and awakening. • Relaxation: serenity, relaxation and appeasing. • Sensual: arousing, sexy and erotic. • Pleasure: liking, “gourmand” and satisfaction. • Tenderness: gentleness and softness. • Joy: excitement, fun and enthusiasm. • Self-esteem: confidence and assurance
Actimood scores are based on a correlation of EmoChar™ and IRT values. The scores are classified on a scale from 0 (low impact on subject's mood) to 3 (high impact on subject's mood).
Each score is obtained according to an algorithm, mixing verbal and non-verbal responses of volunteers to a specific product, or stimulus in a given context. The algorithm was developed from extensive field data, and in accordance with scientific literature and validated biobehavioral patterns associated to various emotional states.

subject's mood [3] = assay: Sensorial and emotional evaluation of fragrance raw materials and fragrance compositions (prosody, verbatim, GEW, IRT, EmoChar combined to one mood); conditions: 30 subjects, card strip for 10 seconds; details in FIG. 1-9
Protocol: as §1, §2, §3, §4
The different recordings are carried in technical room during talking with the technicians. he following tests were performed for more than 100 different fragrance raw materials.
The following testing procedures were used to determine one mood out of five different testing strategies. All results of the single testing protocols as described in 1.1 to 1.5 were combined and one mood per fragrance raw material or fragrance composition was determined based on the single testing results.
Fragrance compositions were designed by combining the tested fragrance raw materials and the compositions were tested in 30 different subjects to evaluate the emotional impression conveyed by the fragrance composition as described above for the fragrance raw materials.

[4] = ingredients of the fragrance composition conveying an attractive mood (Table 2)

| Compound | IRT Score (subject's mood [1]; [4]) | Actimood score (subject's mood [2]; attractive mood (Table 11)) | Actimood score (subject's mood [2]; protective mood (Table 5)) | mood conveyed by the fragrance raw material (subject's mood [3]) | Actimood score (subject's mood [2]; well-being mood (Table 10)) | IRT Score (subject's mood [1]; ingredients of the fragrance composition conveying a fresh mood (Table 1)) | Actimood score (subject's mood [2]; fresh mood (Table 12)) | Actimood score (subject's mood [2]; joyful mood (Table 6)) | Actimood score (subject's mood [2]; sensual mood (Table 8)) | Actimood score (subject's mood [2]; self-confident mood (Table 9)) |
| --- | --- | --- | --- | --- | --- | --- | --- | --- | --- | --- |
| CCOc1cc(C=O)ccc1O [ETHYL VANILLIN, 3-ethoxy-4-hydroxy-benzaldehyde] | 2786 | 3 | 1 | conveying a well-being mood |  |  |  |  |  |  |
| Oxacyclohexadecen-2-one [GLOBALIDE ®] | 1815 | 3 | 2 | conveying a relaxing mood | 2 |  |  |  |  |  |
| CC1(C)CCCC2(C)C1CCC1(C)OCCC12 (centres unmarked) [AMBROXIDE, 3a,6,6,9a-Tetramethyldodecahydronaphtho[2,1-b]furan] | 1921 | 3 |  | conveying a self-confident mood | 3 | 1643 | 3 | 3 | 2 |  |
| CC1C(C)(C)C2=C(C(=O)CCC2)C1(C)C (centres unmarked) [CASHMERAN, 1,1,2,3,3,-pentamethyl-2,5,6,7-tetrahydroinden-4-one] | 1469 | 3 | 2 | conveying a protective mood | 1 |  |  |  |  | 2 |
| COC1(C)CCC23CC1C(C)(C)C2CCC3C (centres unmarked) [CEDRAMBER, 8-methoxy-2,6,6,8-tetramethyl-tricyclo[5.3.1.01,5]undecane] |  |  |  | conveying a sensual mood | 0 |  |  |  | 3 |  |
| C=CCOC(=O)CCC1CCCCC1 [ALLYL CYCLOHEXYL PROPIONATE, allyl 3-cyclohexylpropanoate] |  |  |  | conveying a joyful mood |  |  |  | 3 |  |  |
| CCc1occc(=O)c1O [ETHYL MALTOL, 2-ethyl-3-hydroxy-pyran-4-one] | 3505 | 3 |  | conveying an attractive mood |  |  |  | 3 |  |  |
